Experimental data as given in ChEMBL document CHEMBL1201862, “PubChem BioAssay data set” (2004).
Calls of active or inactive are those of the source.

Columns and labels:
[1] = biological target: FAD-linked sulfhydryl oxidase ALR (Homo sapiens, UniProt P55789); assay: ALR-catalysed DTT oxidation blockers – biochemical, H2O2 detection, luminescence, cherry-pick, dose response (AID 493248)
[2] = biological target: Wee1-like protein kinase (Homo sapiens, UniProt P30291); assay: Dose Response Cell-based Assay for Inhibitors of Wee1 Degradation. [Related pubchem assays: 1410, 1321 ]; type: functional
[3] = biological target: T1, Heat shock factor protein 1 (Mus musculus, UniProt P38532); assay: enhancement of HSF1-driven luciferase signal – cell-based, NIH3T3, luminescence, dose retest, confirmation (AID 435004); type: functional;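 note: stress induced by proteasome inhibitor MG132 added 30 min after compound; luciferase reporter driven by HSF1 response element in NIH3T3 cells; actives raise luminescence as potentiators of the MG132 stress response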
T1 sequence (P38532 whole entry): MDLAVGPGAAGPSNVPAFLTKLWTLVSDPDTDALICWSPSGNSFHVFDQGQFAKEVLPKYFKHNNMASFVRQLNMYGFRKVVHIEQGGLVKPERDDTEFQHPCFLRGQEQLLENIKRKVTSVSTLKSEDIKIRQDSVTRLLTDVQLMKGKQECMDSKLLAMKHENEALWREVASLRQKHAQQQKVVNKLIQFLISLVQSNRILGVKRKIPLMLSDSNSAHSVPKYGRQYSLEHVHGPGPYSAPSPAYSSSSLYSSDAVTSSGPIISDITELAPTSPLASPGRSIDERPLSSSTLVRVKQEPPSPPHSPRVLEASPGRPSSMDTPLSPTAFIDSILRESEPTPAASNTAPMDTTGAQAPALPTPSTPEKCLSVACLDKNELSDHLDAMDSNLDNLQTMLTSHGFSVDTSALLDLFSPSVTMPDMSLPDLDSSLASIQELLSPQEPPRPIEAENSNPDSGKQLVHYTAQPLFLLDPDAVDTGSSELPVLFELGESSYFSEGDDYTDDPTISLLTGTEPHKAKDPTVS

[4] = biological target: G2/mitotic-specific cyclin-B1 (Homo sapiens, UniProt P14635); assay: Counterscreen assay for inhibitors of Wee1 degradation: dose response cell-based assay to identify inhibitors of cyclin B degradation. [Related pubchem assays: 1410, 1321 ]; type: functional
[5] = CCR5-tropic HIV-1 fusion blockers – cell-based, CCR5-tropic Env, dose response (AID 2279); type: functional
[6] = cells; type: functional
[7] = system: HT-1080; assay: HT1080 cell viability loss – fluorescence readout (AID 620); type: functional, cell-based; settings: Homo sapiens
[8] = biological target: Luciferin 4-monooxygenase (Photinus pyralis, UniProt P08659); assay: Counter Screen for Luciferase-based Assay Positives. [Related pubchem assays: 620, 618, 411 ]
[9] = biological target: Mothers against decapentaplegic homolog 3 (Homo sapiens, UniProt P84022); assay: blockers of Smad3 complex formation in lysate – cell lysate, secondary confirmation, chemiluminescent ELISA, HEK293 lysate, dose response (AID 1058); type: functional
[10] = biological target: Cytochrome P450 2C9 (Homo sapiens, UniProt P11712); settings: Potency
[11] = biological target: T2, Kappa-type opioid receptor (Homo sapiens, UniProt P41145); type: functional
[12] = DRD fibroblast viability loss – cell-based, non-viral oncogenic, luminescence, dose response (AID 1934); type: functional; settings: Homo sapiens
[13] = biological target: T3, Insulin-degrading enzyme (Homo sapiens, UniProt P14735); assay: Dose Response: Fluorescence polarization-based cell-based high throughput dose response assay for inhibitors of insulin-degrading enzyme (IDE). [Related pubchem assays: 434962 (Primary screen (IDE inhibitors in singlicate)), 449730 (Counterscreen (Cytotoxicity in triplicate)), 435028 (Confirmation (IDE inhibitors in triplicate)), 434984 (Summary …; type: functional
T3 sequence (P14735 whole entry): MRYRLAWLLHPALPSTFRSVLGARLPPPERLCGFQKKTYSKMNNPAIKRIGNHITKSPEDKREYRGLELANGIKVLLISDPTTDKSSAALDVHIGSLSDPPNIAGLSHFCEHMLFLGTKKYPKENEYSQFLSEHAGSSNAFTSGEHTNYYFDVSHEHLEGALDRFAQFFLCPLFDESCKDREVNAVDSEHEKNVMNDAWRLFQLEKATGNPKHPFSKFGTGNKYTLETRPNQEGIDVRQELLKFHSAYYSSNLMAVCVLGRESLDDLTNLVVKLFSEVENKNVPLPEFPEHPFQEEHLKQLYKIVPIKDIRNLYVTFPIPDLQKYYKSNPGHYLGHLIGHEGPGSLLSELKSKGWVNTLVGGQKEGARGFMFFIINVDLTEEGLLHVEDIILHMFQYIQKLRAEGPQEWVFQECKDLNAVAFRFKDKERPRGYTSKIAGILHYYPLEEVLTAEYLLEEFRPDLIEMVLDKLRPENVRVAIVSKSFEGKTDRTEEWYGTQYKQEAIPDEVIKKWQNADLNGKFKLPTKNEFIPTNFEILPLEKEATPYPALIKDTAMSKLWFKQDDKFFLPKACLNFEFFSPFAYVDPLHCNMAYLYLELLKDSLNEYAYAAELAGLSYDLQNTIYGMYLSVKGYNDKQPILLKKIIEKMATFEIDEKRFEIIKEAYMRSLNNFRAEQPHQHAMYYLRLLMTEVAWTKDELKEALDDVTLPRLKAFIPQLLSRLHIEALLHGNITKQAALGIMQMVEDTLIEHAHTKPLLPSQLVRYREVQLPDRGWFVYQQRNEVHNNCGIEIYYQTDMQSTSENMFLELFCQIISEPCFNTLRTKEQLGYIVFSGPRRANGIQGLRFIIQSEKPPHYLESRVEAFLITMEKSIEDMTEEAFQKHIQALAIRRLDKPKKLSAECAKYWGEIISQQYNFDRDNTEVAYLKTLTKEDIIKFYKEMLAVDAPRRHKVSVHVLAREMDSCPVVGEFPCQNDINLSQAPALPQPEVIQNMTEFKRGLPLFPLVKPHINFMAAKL

[14] = biological target: Beta-galactosidase (Escherichia coli, UniProt Q8VNN2); type: functional
[15] = system: BJ; assay: cells; type: functional, cell-based; settings: Homo sapiens
[16] = system: BJ; assay: BJ-TERT fibroblast viability loss – cell-based, RAS-independent, luminescence, dose response (AID 1933); type: functional; settings: Homo sapiens
[17] = biological target: T2, Kappa-type opioid receptor; type: functional; remark: listed apart in the source
[18] = Counterscreen for IDE inhibitors: Luminescence-based cell-based high throughput dose response assay to identify compounds that are cytotoxic to HEK cells. [Related pubchem assays: 434962 (Primary screen (IDE inhibitors in singlicate)), 449730 (Counterscreen (Cytotoxicity in triplicate)), 435028 (Confirmation (IDE inhibitors in triplicate)) …; type: functional; settings: HEK293
[19] = system: BJ; assay: BJ-TERT-LT-ST fibroblast viability loss – cell-based, RAS-independent, luminescence, dose response (AID 1935); type: functional; settings: Homo sapiens;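 note: BJ fibroblasts immortalized with TERT plus LT and ST oncogenes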
[20] = biological target: T4, Neuropeptide Y receptor type 2 (Homo sapiens, UniProt P49146); type: functional, cell-based;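 note: HEK293 cells expressing the receptor and a CNG channel; stimulus was NPY near EC95 followed by isoproterenol to raise cAMP; antagonist potency measured as restoring cAMP signal that NPY suppresses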
T4 sequence (P49146 whole entry): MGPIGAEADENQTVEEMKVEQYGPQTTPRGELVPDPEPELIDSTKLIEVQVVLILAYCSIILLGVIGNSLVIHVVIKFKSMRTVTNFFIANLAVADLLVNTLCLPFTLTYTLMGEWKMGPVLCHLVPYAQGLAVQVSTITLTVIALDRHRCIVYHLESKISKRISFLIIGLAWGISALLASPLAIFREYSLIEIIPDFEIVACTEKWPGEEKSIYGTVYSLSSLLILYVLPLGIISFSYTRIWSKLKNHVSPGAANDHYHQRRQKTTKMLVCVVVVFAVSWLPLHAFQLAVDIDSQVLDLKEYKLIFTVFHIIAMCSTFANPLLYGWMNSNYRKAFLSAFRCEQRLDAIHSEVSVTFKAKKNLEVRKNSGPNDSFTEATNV

[21] = biological target: T5, Neuropeptide Y receptor type 1 (Homo sapiens, UniProt P25929); type: functional;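 note: HEK293 cells with a CNG channel challenged with NPY then isoproterenol; potency as antagonist that reverses NPY suppression of cAMP signal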
T5 sequence (P25929 whole entry): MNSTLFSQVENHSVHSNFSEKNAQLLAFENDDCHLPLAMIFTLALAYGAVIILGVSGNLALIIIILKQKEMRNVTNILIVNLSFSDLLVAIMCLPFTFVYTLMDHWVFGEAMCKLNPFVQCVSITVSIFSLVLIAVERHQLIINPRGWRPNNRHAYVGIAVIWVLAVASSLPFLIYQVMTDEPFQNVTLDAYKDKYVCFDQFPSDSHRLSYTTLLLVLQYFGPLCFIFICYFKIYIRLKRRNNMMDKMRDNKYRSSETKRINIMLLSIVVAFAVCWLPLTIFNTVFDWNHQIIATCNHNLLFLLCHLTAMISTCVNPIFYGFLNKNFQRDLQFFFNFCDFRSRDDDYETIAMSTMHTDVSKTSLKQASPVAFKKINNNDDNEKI

[22] = biological target: T6, Short transient receptor potential channel 4 (Mus musculus, UniProt Q9QUQ5); assay: calcium entry via TRPC4 opening agents – cell-based, HEK293 TRPC4/mu-opioid, Fluo-4 calcium, dose response (AID 434937); type: functional
T6 sequence (Q9QUQ5 whole entry): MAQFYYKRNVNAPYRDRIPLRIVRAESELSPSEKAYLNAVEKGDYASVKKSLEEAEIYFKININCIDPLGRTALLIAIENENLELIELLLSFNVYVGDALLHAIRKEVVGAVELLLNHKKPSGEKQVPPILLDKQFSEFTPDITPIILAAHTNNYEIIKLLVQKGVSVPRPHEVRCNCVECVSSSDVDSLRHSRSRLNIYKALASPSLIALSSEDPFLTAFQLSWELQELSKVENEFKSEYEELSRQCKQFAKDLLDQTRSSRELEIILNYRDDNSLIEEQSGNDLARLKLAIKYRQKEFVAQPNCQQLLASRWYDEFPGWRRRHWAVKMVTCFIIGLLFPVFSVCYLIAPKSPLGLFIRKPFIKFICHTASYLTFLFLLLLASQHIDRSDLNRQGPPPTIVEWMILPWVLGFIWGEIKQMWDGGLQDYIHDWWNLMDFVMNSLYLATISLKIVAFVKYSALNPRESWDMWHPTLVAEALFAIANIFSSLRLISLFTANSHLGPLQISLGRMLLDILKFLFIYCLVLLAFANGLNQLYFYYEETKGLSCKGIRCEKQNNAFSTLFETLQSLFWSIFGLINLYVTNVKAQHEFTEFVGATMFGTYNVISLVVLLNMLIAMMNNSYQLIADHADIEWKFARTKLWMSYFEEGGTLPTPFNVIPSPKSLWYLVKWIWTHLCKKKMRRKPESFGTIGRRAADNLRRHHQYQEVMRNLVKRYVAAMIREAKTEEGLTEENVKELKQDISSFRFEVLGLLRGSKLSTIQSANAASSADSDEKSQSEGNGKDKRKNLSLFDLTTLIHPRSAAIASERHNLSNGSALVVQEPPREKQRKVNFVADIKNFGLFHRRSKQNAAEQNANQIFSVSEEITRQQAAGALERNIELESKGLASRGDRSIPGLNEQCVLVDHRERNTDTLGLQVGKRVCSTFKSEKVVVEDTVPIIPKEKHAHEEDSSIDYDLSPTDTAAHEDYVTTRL

[23] = biological target: Sphingosine 1-phosphate receptor 3 (Homo sapiens, UniProt Q99500); assay: Dose response cell-based high throughput screening assay for antagonists of the Sphingosine 1-Phosphate Receptor 3 (S1P3). [Related pubchem assays: 1429, 485 ]; type: functional
[24] = biological target: 5-hydroxytryptamine receptor 1E (Homo sapiens, UniProt P28566); assay: Counterscreen assay for S1P3 antagonists: Dose response cell-based high throughput screening assay to identify antagonists of the 5-Hydroxytryptamine Receptor Subtype 1E (5HT1E). [Related pubchem assays: 1429, 485 ]; type: functional
Sequence of 5-hydroxytryptamine receptor 1E (P28566 whole entry): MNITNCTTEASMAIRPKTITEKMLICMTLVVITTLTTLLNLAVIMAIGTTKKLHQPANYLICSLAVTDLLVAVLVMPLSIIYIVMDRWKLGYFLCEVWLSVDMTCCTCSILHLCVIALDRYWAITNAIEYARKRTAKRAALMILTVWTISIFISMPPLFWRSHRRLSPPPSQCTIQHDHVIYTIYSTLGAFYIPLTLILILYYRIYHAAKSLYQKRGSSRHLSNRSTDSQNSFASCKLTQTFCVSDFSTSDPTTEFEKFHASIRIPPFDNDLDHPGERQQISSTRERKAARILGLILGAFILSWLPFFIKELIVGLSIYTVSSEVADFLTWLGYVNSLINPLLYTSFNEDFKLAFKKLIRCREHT

T2 sequence (P41145 whole entry): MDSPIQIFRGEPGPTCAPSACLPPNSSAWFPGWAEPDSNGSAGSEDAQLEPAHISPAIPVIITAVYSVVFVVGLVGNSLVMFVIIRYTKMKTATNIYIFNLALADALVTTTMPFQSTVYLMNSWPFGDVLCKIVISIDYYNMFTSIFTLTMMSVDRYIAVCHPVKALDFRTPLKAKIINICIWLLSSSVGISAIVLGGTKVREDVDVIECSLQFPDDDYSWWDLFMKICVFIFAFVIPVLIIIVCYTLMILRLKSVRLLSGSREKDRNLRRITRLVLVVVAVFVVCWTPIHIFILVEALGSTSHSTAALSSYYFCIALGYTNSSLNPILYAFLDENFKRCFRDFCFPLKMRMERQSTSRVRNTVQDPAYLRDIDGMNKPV
Sequence of Sphingosine 1-phosphate receptor 3 (Q99500 whole entry): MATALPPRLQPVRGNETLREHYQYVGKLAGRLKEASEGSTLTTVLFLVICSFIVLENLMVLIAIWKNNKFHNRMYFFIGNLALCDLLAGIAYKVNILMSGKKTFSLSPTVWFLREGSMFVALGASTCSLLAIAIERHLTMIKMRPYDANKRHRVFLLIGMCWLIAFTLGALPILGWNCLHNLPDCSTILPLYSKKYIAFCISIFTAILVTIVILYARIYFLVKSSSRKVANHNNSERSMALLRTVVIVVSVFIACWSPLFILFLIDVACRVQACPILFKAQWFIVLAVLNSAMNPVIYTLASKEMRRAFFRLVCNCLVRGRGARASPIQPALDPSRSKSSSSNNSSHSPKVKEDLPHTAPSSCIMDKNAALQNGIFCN
Sequence of G2/mitotic-specific cyclin-B1 (P14635 whole entry, the tested form may be a part): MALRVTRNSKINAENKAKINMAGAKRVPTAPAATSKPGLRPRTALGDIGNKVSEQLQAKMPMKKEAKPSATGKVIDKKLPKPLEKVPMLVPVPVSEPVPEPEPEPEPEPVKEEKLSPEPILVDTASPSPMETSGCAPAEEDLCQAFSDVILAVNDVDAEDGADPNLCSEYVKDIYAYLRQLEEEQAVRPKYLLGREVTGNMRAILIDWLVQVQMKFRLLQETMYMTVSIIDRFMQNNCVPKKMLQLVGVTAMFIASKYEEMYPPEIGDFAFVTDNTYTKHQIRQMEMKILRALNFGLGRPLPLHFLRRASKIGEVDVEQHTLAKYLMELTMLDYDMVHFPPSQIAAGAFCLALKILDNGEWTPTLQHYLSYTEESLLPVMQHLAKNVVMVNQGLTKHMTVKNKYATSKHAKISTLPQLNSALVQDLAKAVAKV
Sequence of Cytochrome P450 2C9 (P11712 whole entry): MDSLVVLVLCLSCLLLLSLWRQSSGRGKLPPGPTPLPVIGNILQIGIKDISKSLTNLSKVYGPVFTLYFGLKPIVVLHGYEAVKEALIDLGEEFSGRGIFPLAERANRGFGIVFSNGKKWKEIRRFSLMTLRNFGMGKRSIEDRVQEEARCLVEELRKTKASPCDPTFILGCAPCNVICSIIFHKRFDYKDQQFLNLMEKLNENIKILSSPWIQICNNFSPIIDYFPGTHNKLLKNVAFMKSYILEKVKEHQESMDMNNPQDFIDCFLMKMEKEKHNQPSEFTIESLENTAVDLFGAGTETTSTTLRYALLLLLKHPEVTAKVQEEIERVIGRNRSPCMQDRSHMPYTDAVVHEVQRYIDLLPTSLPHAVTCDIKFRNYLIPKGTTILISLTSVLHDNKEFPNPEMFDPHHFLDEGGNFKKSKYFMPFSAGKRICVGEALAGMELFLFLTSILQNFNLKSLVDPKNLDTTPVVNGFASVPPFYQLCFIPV
Sequence of Luciferin 4-monooxygenase (P08659 whole entry): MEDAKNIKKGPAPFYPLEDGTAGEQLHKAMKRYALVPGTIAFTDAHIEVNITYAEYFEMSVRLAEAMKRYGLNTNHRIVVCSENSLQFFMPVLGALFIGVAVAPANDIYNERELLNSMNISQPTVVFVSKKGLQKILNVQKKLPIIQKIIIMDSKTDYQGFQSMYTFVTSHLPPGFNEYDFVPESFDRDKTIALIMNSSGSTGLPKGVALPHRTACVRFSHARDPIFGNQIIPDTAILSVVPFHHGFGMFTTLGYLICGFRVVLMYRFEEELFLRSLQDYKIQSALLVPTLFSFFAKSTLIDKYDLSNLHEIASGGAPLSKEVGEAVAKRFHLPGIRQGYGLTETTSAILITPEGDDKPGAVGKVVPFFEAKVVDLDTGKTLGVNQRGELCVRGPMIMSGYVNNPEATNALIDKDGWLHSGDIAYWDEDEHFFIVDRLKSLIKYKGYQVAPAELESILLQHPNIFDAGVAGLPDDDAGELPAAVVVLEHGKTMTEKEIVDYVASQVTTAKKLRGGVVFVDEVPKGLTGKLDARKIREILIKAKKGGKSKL
Sequence of FAD-linked sulfhydryl oxidase ALR (P55789 whole entry): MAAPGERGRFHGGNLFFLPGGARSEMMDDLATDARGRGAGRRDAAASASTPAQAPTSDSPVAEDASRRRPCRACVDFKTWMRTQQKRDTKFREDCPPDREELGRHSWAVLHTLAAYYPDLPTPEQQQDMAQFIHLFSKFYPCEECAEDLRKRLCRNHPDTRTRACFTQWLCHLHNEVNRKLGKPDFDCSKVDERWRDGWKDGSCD
Sequence of Mothers against decapentaplegic homolog 3 (P84022 whole entry): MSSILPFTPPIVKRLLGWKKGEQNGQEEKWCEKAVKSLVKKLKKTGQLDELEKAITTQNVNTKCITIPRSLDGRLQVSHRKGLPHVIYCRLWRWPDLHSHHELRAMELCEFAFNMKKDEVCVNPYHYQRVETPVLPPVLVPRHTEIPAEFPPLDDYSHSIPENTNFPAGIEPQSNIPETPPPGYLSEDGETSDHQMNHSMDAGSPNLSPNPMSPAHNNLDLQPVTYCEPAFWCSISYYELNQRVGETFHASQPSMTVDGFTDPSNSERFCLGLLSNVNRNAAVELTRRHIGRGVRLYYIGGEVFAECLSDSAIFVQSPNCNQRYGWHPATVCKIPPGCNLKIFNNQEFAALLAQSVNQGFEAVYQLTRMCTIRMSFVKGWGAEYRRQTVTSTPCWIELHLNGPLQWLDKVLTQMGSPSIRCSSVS
Sequence of Wee1-like protein kinase (P30291 whole entry): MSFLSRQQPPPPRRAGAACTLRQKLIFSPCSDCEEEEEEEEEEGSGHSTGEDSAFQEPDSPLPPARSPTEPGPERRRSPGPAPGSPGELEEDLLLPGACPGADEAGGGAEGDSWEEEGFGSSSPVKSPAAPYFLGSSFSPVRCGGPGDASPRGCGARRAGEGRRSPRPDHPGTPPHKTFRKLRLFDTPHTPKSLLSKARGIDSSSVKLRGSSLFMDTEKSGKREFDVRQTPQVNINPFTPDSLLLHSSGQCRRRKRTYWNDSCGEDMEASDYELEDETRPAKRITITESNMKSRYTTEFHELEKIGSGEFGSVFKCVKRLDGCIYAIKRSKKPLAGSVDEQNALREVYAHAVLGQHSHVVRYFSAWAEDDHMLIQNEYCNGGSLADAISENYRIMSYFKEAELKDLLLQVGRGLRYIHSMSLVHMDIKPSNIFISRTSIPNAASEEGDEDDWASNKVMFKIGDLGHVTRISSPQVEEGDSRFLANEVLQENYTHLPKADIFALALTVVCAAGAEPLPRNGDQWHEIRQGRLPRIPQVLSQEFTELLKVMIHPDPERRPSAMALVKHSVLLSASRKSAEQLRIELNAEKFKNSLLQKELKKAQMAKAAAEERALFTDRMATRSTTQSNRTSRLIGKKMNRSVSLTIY
Sequence of Beta-galactosidase (Q8VNN2 whole entry): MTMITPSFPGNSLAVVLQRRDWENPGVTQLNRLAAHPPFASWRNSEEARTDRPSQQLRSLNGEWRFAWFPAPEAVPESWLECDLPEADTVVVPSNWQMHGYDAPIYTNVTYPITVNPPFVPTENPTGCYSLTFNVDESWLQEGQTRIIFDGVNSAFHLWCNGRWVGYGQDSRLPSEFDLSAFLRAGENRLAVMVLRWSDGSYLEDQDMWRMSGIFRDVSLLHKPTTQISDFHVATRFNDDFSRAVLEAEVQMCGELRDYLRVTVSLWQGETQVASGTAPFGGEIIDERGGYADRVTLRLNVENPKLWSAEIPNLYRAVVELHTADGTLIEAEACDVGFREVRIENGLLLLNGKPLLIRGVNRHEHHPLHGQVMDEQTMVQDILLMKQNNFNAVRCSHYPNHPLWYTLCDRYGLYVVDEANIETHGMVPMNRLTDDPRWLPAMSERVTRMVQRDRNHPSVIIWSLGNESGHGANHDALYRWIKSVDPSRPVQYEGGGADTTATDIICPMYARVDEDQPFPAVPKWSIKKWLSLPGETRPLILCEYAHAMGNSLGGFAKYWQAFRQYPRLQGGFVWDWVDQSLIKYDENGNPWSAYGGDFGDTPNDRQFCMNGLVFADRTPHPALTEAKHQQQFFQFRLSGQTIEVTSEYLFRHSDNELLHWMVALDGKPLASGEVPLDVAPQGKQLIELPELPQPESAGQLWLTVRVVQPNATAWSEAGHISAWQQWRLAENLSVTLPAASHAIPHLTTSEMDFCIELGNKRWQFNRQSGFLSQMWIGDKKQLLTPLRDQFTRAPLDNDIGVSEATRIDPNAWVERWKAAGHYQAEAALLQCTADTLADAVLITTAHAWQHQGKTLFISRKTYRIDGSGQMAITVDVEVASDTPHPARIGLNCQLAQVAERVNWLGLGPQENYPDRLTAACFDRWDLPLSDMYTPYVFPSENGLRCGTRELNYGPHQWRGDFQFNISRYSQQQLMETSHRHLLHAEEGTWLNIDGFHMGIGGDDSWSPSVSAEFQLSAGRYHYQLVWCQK

## Cc1ccc2[nH]c(NCc3ccccc3)nc2c1
[1]
  AC50: 6.87 µM (active)
[2]
  EC50: > 49.7 µM (not active)
[3]
  EC50: > 260 µM (inactive)
[4]
  EC50: > 49.7 µM (not active)

## Cc1ccc(-c2nc(SCC(=O)Nc3ccccc3OC(F)F)c3c(C)c(C(=O)O)sc3n2)cc1
[5]
  IC50: 18.8 µM (active)

## Cc1ccc(C(=O)COC(=O)c2cccs2)cc1
[6]
  IC50: 24.3 µM (active)
[7]
  EC50: > 50 µM (not active)
[8]
  EC50: 0.53 µM (active)

## COc1cc(C(c2cc3c(cc2O)OCO3)N2CCCC2)cc(OC)c1OC (centres undefined)
[9]
  IC50: > 40 µM (not active)

## CCOC(=O)OCC1OC(C#Cc2ccccc2)C=CC1OC(=O)OCC (centres undefined)
[10]
  AC50: 0.0794 µM (inconclusive)

## CCN1C(=O)/C(=C/C=C2/Sc3ccccc3N2CCO)SC1=S
[11]
  IC50: 27.6 µM
[12]
  EC50: 50.2 µM (active)
[13]
  IC50: > 56 µM (not active)
[14]
  EC50: 16.7 µM (active)
[15]
  EC50: 30.4 µM (active)
[16]
  EC50: 28.7 µM (active)
[17]
  IC50: 13.2 µM (active)
[18]
  IC50: 12.1 µM (not active)
[19]
  EC50: > 150 µM (not active)

## OC[C@H]1O[C@@H](n2cnc3c(Nc4ccccc4)ncnc32)[C@H](O)[C@@H]1O [N6-PHENYLADENOSINE]
[20]
  IC50: 4.73 µM (active)
[21]
  IC50: 7.83 µM (active)

## O=C(CCCN1CCC2(CC1)C(=O)NCN2c1ccccc1)c1ccc(F)cc1 [SPIPERONE]
[22]
  EC50: 6.68 µM (active)
[23]
  IC50: > 50 µM (not active)
[24]
  IC50: > 50 µM (not active)
